Experimental data reported in patent publication US20240025919A1, “AZA-TETRACYCLIC OXAZEPINE COMPOUNDS AND USES THEREOF” (Genentech, Inc., priority 2022, published 2024).
“And” between values parts separate entries of the source, which are not always exact repeats. Identical values can stand only once. Like-named read-outs stand apart in the source and are kept apart here.

Experiments:
[1] = tested on: HPAC (homozygous mutant KRAS G12D human pancreatic cell line); assay: KRAS 3D-Cell Proliferation Assay, HPAC (CellTiter-Glo 3D, 7 days); type: cell-based; settings: HPAC 3D culture, read-out: Prolif HPAC 3D ATP IC50
Description: (§1) Example 503: KRAS 3D-Cell Proliferation Assays. Cellular potencies of compounds are assessed by evaluating inhibition of proliferation in 3D cultures of homozygous mutant KRAS G12D human pancreatic cell lines (AsPC-1 and HPAC) as compared to a KRAS wild type human lung adenocarcinoma cell line (PC-9 and/or H1975). Cells are seeded into 384-well black round-bottom, ultra-low attachment assay plates in 50 uL cell growth medium (RPMI-1640 with 10% fetal bovine serum and 2 mM L-glutamine). After overnight incubation at 37° C. and 5% CO2, compounds solubilized in DMSO are added as dilution series to the wells in a total volume of 150 nL (0.3% DMSO final). The cells are incubated for 7 days at 37° C. and 5% CO2. Cell proliferation is quantitated by addition of 40 uL/well of CellTiter-GloO 3D (Promega), and the well contents are mixed 20× at high speed using liquid handling automation workstation (Bravo with 384-well head) and centrifuged at 1500 rpm for 2 minutes to eliminate bubbles. This reagent in combination with mechanical disruption releases the cellular ATP to promote activity in a luciferase-based enzyme/substrate chemiluminescent detection system. After a 30-minute incubation under ambient conditions with shaking and an additional 10 minutes without shaking, the luminescence is read on a plate reader (e.g. EnVision [PerkinElmer]). The results are normalized to percent inhibition based on the following control samples: DMSO (0% inhibition) and 1 uM staurosporine (100% inhibition). The normalized luminescence results are plotted against compound concentration, and the data are fit to a 4-parameter Hill equation to determine the IC50 values.

KRAS G12D = KRAS G12D (Homo sapiens (Human), UniProt P01116, G12D); assay: KRAS G12D LoEnz Biochemical Assay, BODIPY-GDP Exchange TR-FRET (SOS1-mediated nucleotide exchange); settings: read-out: KRas (G12D) GDP HTRF IC50
Chain of KRAS G12D (P01116-2 other isoform, or with tags, fused parts or gaps G12D): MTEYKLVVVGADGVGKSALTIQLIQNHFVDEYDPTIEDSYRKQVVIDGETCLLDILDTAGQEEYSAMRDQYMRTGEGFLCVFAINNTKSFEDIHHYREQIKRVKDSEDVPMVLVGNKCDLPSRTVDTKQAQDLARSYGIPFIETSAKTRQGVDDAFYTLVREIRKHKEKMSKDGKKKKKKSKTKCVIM

[2] = tested on: H1975 (KRAS wild type human lung adenocarcinoma cell line); assay: KRAS 3D-Cell Proliferation Assay, H1975 (CellTiter-Glo 3D, 7 days); type: cell-based; settings: H1975 3D culture, read-out: Prolif H1975 3D ATP IC50
Description: as §1

KRAS WT [3] = target: T1, KRAS WT (Homo sapiens (Human), UniProt P01116); assay: KRAS WT Biochemical Assay, BODIPY-GDP Exchange TR-FRET (Example 502; 0.06 nM KRAS WT, 15 nM GDP, 300 nM SOS1, 120-minute incubation); settings: read-out: KRas HTRF IC50
T1 sequence (P01116-2 other isoform, or with tags, fused parts or gaps): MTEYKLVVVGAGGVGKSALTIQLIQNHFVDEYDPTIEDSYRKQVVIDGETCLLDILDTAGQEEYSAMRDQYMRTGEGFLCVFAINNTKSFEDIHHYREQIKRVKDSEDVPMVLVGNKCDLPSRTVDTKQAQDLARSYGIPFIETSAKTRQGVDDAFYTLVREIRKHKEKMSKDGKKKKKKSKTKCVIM
Method in brief: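 Biotin-tagged recombinant KRAS WT (0.06 nM) preloaded with 15 nM GDP and Tb-streptavidin, 10 min RT, then exchange started with 300 nM SOS1 plus 300 nM BODIPY-GDP in HEPES pH 7.5 buffer with MgCl2. TR-FRET 520/490 ratio read after 120 min; normalized to DMSO and full-inhibition control; IC50 from 4-parameter fit.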

KRAS WT [4] = target: T1, KRAS WT; assay: KRAS WT Biochemical Assay, BODIPY-GDP Exchange TR-FRET (Example 501; 3 nM KRAS WT, 3 nM SOS1, 60-minute incubation)
Method in brief: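 SOS1-mediated exchange assay: 3 nM biotin-KRAS WT with terbium-streptavidin, started with 3 nM SOS1 and 300 nM BODIPY-GDP, HEPES pH 7.5 with MgCl2. TR-FRET (520/490 nm) read after 60 min; normalized to DMSO and full-inhibition control, IC50 from 4-parameter Hill fit.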

[5] = tested on: PC-9 (KRAS wild type human lung adenocarcinoma cell line); assay: KRAS 3D-Cell Proliferation Assay, PC-9 (CellTiter-Glo 3D, 7 days); type: cell-based; settings: PC-9 3D culture, read-out: Prolif PC9 3D ATP IC50
Description: as §1

[6] = read-out: KRas(wt) GDP HTRF IC50

## Cc1c(F)c(N)cc(-c2nc3c4c(nc(OCC56CCCN5CC(F)C6F)nc4c2F)N2C[C@H]4CC[C@H](N4)[C@H]2[C@H](C)O3)c1C(F)(F)F (single isomer, unassigned) [143 (isomer 2)]
[1]; Homo sapiens, HPAC, 168 h
  IC50: 3.52 nM
KRAS G12D
  IC50: 0.26 nM
[2]; Homo sapiens, NCI-H1975, 168 h
  IC50: 1130 nM
KRAS WT [3]
  IC50: 33.5 nM

## Cc1c(F)c(N)cc(-c2nc3c4c(nc(OC[C@@H]5C[C@@H]6C[N@@]5CCO6)nc4c2F)N2C[C@H]4CC[C@H](N4)[C@H]2[C@H](C)O3)c1C(F)(F)F (single isomer, unassigned) [151 (isomer 1)]
[1]; Homo sapiens, HPAC, 168 h
  IC50: 323 nM
KRAS G12D
  IC50: 1.84 nM
[2]; Homo sapiens, NCI-H1975, 168 h
  IC50: 20000 nM
KRAS WT [3]
  IC50: 398 nM

## Cc1c(F)c(N)cc(-c2nc3c4c(nc(OCC5C[C@@H]6C[N@@]5CCO6)nc4c2F)N2C[C@H]4CC[C@H](N4)[C@H]2[C@H](C)O3)c1C(F)(F)F (single isomer, unassigned) [151 (isomer 2)]
[1]; Homo sapiens, HPAC, 168 h
  IC50: 8.04 nM
KRAS G12D
  IC50: 0.12 nM
[2]; Homo sapiens, NCI-H1975, 168 h
  IC50: 1690 nM
KRAS WT [3]
  IC50: 25.5 nM

## Cc1c(F)c(N)cc(-c2nc3c4c(nc(OCC5CCC6CC(F)(F)CN56)nc4c2F)N2C[C@H]4CC[C@H](N4)[C@H]2[C@H](C)O3)c1C(F)(F)F (single isomer, unassigned) [153 (isomer 1)]
[1]
  IC50: 19 nM
KRAS G12D
  IC50: 0.37 nM
[2]; Homo sapiens, NCI-H1975, 168 h
  IC50: 4740 nM
KRAS WT [3]
  IC50: 90.9 nM

## Cc1c(F)c(N)cc(-c2nc3c4c(nc(OCC5CCC6CC(F)(F)CN56)nc4c2F)N2C[C@H]4CC[C@H](N4)[C@H]2[C@H](C)O3)c1C(F)(F)F (single isomer, unassigned) [153 (isomer 2)]
[1]
  IC50: 13.4 nM
KRAS G12D
  IC50: 0.32 nM
[2]
  IC50: 4180 nM
KRAS WT [3]
  IC50: 87.6 nM

## Cc1c(F)c(N)cc(-c2nc3c4c(nc(OCC5CCC6CC(F)(F)CN56)nc4c2F)N2C[C@H]4CC[C@H](N4)[C@H]2[C@H](C)O3)c1C(F)(F)F (single isomer, unassigned) [153 (isomer 3)]
[1]
  IC50: 32.9 nM
KRAS G12D
  IC50: 0.55 nM
[2]
  IC50: 4490 nM
KRAS WT [3]
  IC50: 125 nM

## Cc1c(F)c(N)cc(-c2nc3c4c(nc(OC[C@@H]5C[C@H]6COCCN65)nc4c2F)N2C[C@H]4CC[C@H](N4)[C@H]2[C@H](C)O3)c1C(F)(F)F (single isomer, unassigned) [159 (diast. 2)]
[1]; Homo sapiens, HPAC, 168 h
  IC50: 23.8 nM
KRAS G12D
  IC50: 0.23 nM
[2]; Homo sapiens, NCI-H1975, 168 h
  IC50: 1240 nM
KRAS WT [3]
  IC50: 48.1 nM

## Cc1c(F)c(N)cc(-c2nc3c4c(nc(OC[C@]5(CN6C[C@H]7C[C@@H]6CO7)CC5(F)F)nc4c2F)N2C[C@H]4CC[C@H](N4)[C@H]2[C@H](C)O3)c1C(F)(F)F (single isomer, unassigned) [166 a]
[1]; Homo sapiens, HPAC, 168 h
  IC50: 1.44 nM
KRAS G12D
  IC50: 0.1 nM
[2]
  IC50: 1270 nM
KRAS WT [3]
  IC50: 3.68 nM

## C[C@@H]1Oc2nc(-c3cccc4cccc(Cl)c34)c(F)c3nc(OCC45CCN4CC(F)(F)C5)nc(c23)N2C[C@H]3CC[C@H](N3)[C@@H]12 (single isomer, unassigned) [Compound 21]
KRAS WT [4]; [6]
  IC50: 3890 nM and 1400 nM
[5]
  IC50: 8130 nM

## Cc1cc(N)nc(-c2nc3c4c(nc(OC[C@]56CCN5CC(F)(F)C6)nc4c2F)N2C[C@H]4CC[C@H](N4)[C@H]2[C@H](C)O3)c1C(F)(F)F (single isomer, unassigned) [Compound 45]
KRAS WT [4]; [6]
  IC50: 69.4 nM and 319 nM
[5]; Homo sapiens, PC-9, 168 h
  IC50: 20000 nM

## Cc1cc(N)c(F)c(-c2nc3c4c(ncnc4c2Cl)N2C[C@H]4CC[C@H](N4)[C@H]2[C@H](C)O3)c1C(F)(F)F (single isomer, unassigned) [Compound 94]
[1]
  IC50: 2230 nM
KRAS G12D
  IC50: 2300 nM
[2]
  IC50: 15200 nM
KRAS WT [3]
  IC50: 200000 nM

## Cc1c(F)c(N)cc(-c2nc3c4c(nc(OCC5CC(F)C6CCCN56)nc4c2F)N2C[C@H]4CC[C@H](N4)[C@H]2[C@H](C)O3)c1C(F)(F)F (single isomer, unassigned) [Compound 160 (diast. 2)]
[1]; Homo sapiens, HPAC, 168 h
  IC50: 6.97 nM
KRAS G12D
  IC50: 0.12 nM
[2]; Homo sapiens, NCI-H1975, 168 h
  IC50: 755 nM
KRAS WT [3]
  IC50: 22.5 nM

## Cc1c(F)c(N)cc(-c2nc3c4c(nc(OC[C@]5(CN6C[C@H]7C[C@@H]6CO7)CC5(F)F)nc4c2F)N2C[C@H]4CC[C@H](N4)[C@H]2[C@H](C)O3)c1C(F)(F)F [166 b, 5-((5S,5aS,6S,9R)-12-((1-(((1R,4R)-2-Oxa-5-azabicyclo[2.2.1]heptan-5-yl)methyl)-2,2-difluorocyclopropyl)methoxy)-1-fluoro-5-methyl-5a,6,7,8,9,10-hexahydro-5H-4-oxa-3,10a,11,13,14-pentaaza-6,9-methanonaphtho[1,8-ab]heptalen-2-yl)-2-fluoro-3-methyl-4-(trifluoromethyl)aniline]
[1]
  IC50: 1.49 nM
KRAS G12D
  IC50: 0.15 nM
[2]
  IC50: 402 nM
KRAS WT [3]
  IC50: 5.38 nM

## C#Cc1cccc2cc(O)cc(-c3nc4c5c(nc(OC[C@@]67CCCN6C[C@H](F)C7)nc5c3F)N3C[C@H]5CC[C@H](N5)[C@H]3[C@H](C)O4)c12 [Compound 11, 5-ethynyl-4-((5S,5aS,6S,9R)-1-fluoro-12-(((2R,7aS)-2-fluorotetrahydro-1H-pyrrolizin-7a(5H)-yl)methoxy)-5-methyl-5a,6,7,8,9,10-hexahydro-5H-4-oxa-3,10a,11,13,14-pentaaza-6,9-methanonaphtho[1,8-ab]heptalen-2-yl)naphthalen-2-ol]
KRAS WT [4]; [6]
  IC50: 0.38 nM
KRAS G12D
  IC50: 0.06 nM
[5]; Homo sapiens, PC-9, 168 h
  IC50: 20000 nM

## C#Cc1c(F)ccc2cccc(-c3nc4c5c(nc(OCC67CCN6CC(F)(F)C7)nc5c3F)N3C[C@H]5CC[C@H](N5)[C@H]3[C@H](C)O4)c12 (stereo partly drawn) [Compound 22, (5S,5aS,6S,9R)-12-((3,3-difluoro-1-azabicyclo[3.2.0]heptan-5-yl)methoxy)-2-(8-ethynyl-7-fluoronaphthalen-1-yl)-1-fluoro-5-methyl-5a,6,7,8,9,10-hexahydro-5H-4-oxa-3,10a,11,13,14-pentaaza-6,9-methanonaphtho[1,8-ab]heptane]
KRAS WT [4]; read-out: KRas HTRF IC50
  IC50: 9.95 nM
[5]
  IC50: 7410 nM

## C#Cc1cccc2cncc(-c3nc4c5c(nc(OC[C@@]67CCCN6C[C@H](F)C7)nc5c3F)N3C[C@H]5CC[C@H](N5)[C@H]3[C@H](C)O4)c12 [Compound 39, (5S,5aS,6S,9R)-2-(5-Ethynylisoquinolin-4-yl)-1-fluoro-12-(((2R,7aS)-2-fluorotetrahydro-1H-pyrrolizin-7a(5H)-yl)methoxy)-5-methyl-5a,6,7,8,9,10-hexahydro-5H-4-oxa-3,10a,11,13,14-pentaaza-6,9-methanonaphtho[1,8-ab]heptalene]
KRAS WT [4]; [6]
  IC50: 76.1 nM
KRAS G12D
  IC50: 1.78 nM
[5]; Homo sapiens, PC-9, 168 h
  IC50: 20000 nM

## C[C@@H]1Oc2nc(-c3nc(N)cc4ccccc34)c(F)c3nc(OC[C@@]45CCCN4C[C@H](F)C5)nc(c23)N2C[C@H]3CC[C@H](N3)[C@@H]12 [Compound 41, 1-((5S,5aS,6S,9R)-1-fluoro-12-(((2R,7aS)-2-fluorotetrahydro-1H-pyrrolizin-7a(5H)-yl)methoxy)-5-methyl-5a,6,7,8,9,10-hexahydro-5H-4-oxa-3,10a,11,13,14-pentaaza-6,9-methanonaphtho[1,8-ab]heptalen-2-yl)isoquinolin-3-amine]
KRAS WT [4]; [6]
  IC50: 296 nM
KRAS G12D
  IC50: 6.35 nM
[5]; Homo sapiens, PC-9, 168 h
  IC50: 20000 nM

## Cc1cc(N)c(F)c(-c2nc3c4c(ncnc4c2Cl)N2C[C@H]4CC[C@H](N4)[C@H]2[C@H](C)O3)c1C(F)(F)F [Compound 93, 3-((5S,5aS,6S,9R)-1-chloro-5-methyl-5a,6,7,8,9,10-hexahydro-5H-4-oxa-3,10a,11,13,14-pentaaza-6,9-methanonaphtho[1,8-ab]heptalen-2-yl)-2-fluoro-5-methyl-4-(trifluoromethyl)aniline]
[1]; Homo sapiens, HPAC, 168 h
  IC50: 836 nM
KRAS G12D
  IC50: 73.4 nM
[2]; Homo sapiens, NCI-H1975, 168 h
  IC50: 20000 nM
KRAS WT [3]
  IC50: 14400 nM

## Cc1c(F)c(N)cc(-c2nc3c4c(nc(OC[C@@]56CCCN5CC5(CC5(F)F)C6)nc4c2F)N2C[C@H]4CC[C@H](N4)[C@H]2[C@@H](C)O3)c1C(F)(F)F (stereo partly shown) [compound 63]
[1]
  IC50: 82.4 nM
KRAS G12D
  IC50: 0.15 nM
[2]
  IC50: 20800 nM
KRAS WT [3]
  IC50: 21.7 nM
